According to the supplement of paper PMC13380429:
± gives the standard deviation of the averaged measurements.

Key:
Conditions in all cases: 72 h
[1] = test system: Caco-2; assay: cell viability relative to DMSO; higher = less toxic
[2] = test system: Calu-3; assay: as above
[3] = test system: HepG2; assay: as above
[4] = test system: U2OS; assay: as above
[5] = test system: Vero E6; assay: as above
[6] = test system: HepG2; assay: relative viability EC50 (midpoint between 100% and the lowest measured viability); higher = less toxic
[7] = test system: U2OS; assay: as above
[8] = test system: Caco-2; assay: drug sensitivity score (DSS) for viability; higher = more toxic; extreme values may be limits of the assay
[9] = test system: Calu-3; assay: as above
[10] = test system: HepG2; assay: as above
[11] = test system: U2OS; assay: as above
[12] = test system: Vero E6; assay: as above
[13] = test system: Caco-2; assay: relative viability EC50 (midpoint between 100% and the lowest measured viability); higher = less toxic
[14] = test system: Calu-3; assay: as above

Structure (SMILES): Cc1cc([C@@H](C)Nc2ccccc2C(=O)O)c2nc(N3CCOCC3)cc(=O)n2c1 [AZD6482]
- cell viability ([1]; 1 nM): 93.5%
- cell viability ([1]; 10 nM): 102%
- cell viability ([1]; 100 nM): 90%
- cell viability ([1]; 1000 nM): 83.6%
- cell viability ([1]; 10000 nM): 57.5%
- cell viability ([2]; 1 nM): 97.7%
- cell viability ([2]; 10 nM): 105%
- cell viability ([2]; 100 nM): 94.2%
- cell viability ([2]; 1000 nM): 100%
- cell viability ([2]; 10000 nM): 69%
- cell viability ([3]; 1 nM): 103%
- cell viability ([3]; 10 nM): 102%
- cell viability ([3]; 100 nM): 99.9%
- cell viability ([3]; 1000 nM): 85.5%
- cell viability ([3]; 10000 nM): 79.7%
- cell viability ([4]; 1 nM): 100%
- cell viability ([4]; 10 nM): 101%
- cell viability ([4]; 100 nM): 96.1%
- cell viability ([4]; 1000 nM): 99.8%
- cell viability ([4]; 10000 nM): 80.8%
- cell viability ([5]; 1 nM): 108%
- cell viability ([5]; 10 nM): 96.5%
- cell viability ([5]; 100 nM): 89.3%
- cell viability ([5]; 1000 nM): 79.8%
- cell viability ([5]; 10000 nM): 67.6%
- relative viability EC50 [6]: > 10 µM
- relative viability EC50 [7]: > 10 µM
- drug sensitivity score [8]: 3.9
- drug sensitivity score [9]: 1.3
- drug sensitivity score [10]: 2
- drug sensitivity score [11]: 0.6
- drug sensitivity score [12]: 4.1

Structure (SMILES): CS(=O)(=O)Nc1ccc([N+](=O)[O-])cc1Oc1ccccc1 [nimesulide]
- drug sensitivity score [9]: 0
- drug sensitivity score [10]: 0
- drug sensitivity score [11]: 0
- drug sensitivity score [12]: 0

Structure (SMILES): C[C@@H](NC(=O)CCc1nc2ccccc2c(=O)[nH]1)c1ccccc1 [ME0328]
- cell viability ([1]; 1 nM): 97.8 ± 16%
- cell viability ([1]; 10 nM): 94 ± 1.2%
- cell viability ([1]; 100 nM): 98.8 ± 2%
- cell viability ([1]; 1000 nM): 103 ± 4.3%
- cell viability ([1]; 10000 nM): 93.7 ± 9.1%
- cell viability ([2]; 1 nM): 100 ± 5.4%
- cell viability ([2]; 10 nM): 112 ± 15%
- cell viability ([2]; 100 nM): 92 ± 3.1%
- cell viability ([2]; 1000 nM): 99.7 ± 8.7%
- cell viability ([2]; 10000 nM): 98.3 ± 3.2%
- cell viability ([3]; 1 nM): 98.65 ± 0.78%
- cell viability ([3]; 10 nM): 98.8 ± 4.7%
- cell viability ([3]; 100 nM): 100 ± 4.5%
- cell viability ([3]; 1000 nM): 104 ± 1.3%
- cell viability ([4]; 1 nM): 102 ± 1.1%
- cell viability ([4]; 10 nM): 98 ± 1.3%
- cell viability ([4]; 100 nM): 103 ± 1.6%
- cell viability ([4]; 1000 nM): 95.8 ± 0.14%
- cell viability ([4]; 10000 nM): 95.8 ± 6.4%
- cell viability ([5]; 1 nM): 93.6 ± 7.1%
- cell viability ([5]; 100 nM): 93.8 ± 6%
- cell viability ([5]; 1000 nM): 94.2 ± 6.1%
- cell viability ([5]; 10000 nM): 94.05 ± 0.071%
- drug sensitivity score [8]: 0
- drug sensitivity score [9]: 0
- drug sensitivity score [10]: 0
- drug sensitivity score [11]: 0
- drug sensitivity score [12]: 0

Structure (SMILES): COc1ccc(Nc2ccn(-c3ccccc3)n2)cc1
- cell viability ([1]; 1 nM): 102%
- cell viability ([1]; 10 nM): 98.5%
- cell viability ([1]; 100 nM): 90%
- cell viability ([1]; 1000 nM): 97.4%
- cell viability ([1]; 10000 nM): 89.4%
- cell viability ([3]; 1 nM): 102%
- cell viability ([3]; 10 nM): 97.2%
- cell viability ([3]; 100 nM): 97.6%
- cell viability ([3]; 1000 nM): 114%
- cell viability ([3]; 10000 nM): 100%
- cell viability ([4]; 1 nM): 95%
- cell viability ([4]; 10 nM): 100%
- cell viability ([4]; 100 nM): 94.2%
- cell viability ([4]; 1000 nM): 99.5%
- cell viability ([4]; 10000 nM): 96.2%
- relative viability EC50 [13]: > 10 µM
- relative viability EC50 [6]: > 10 µM
- relative viability EC50 [7]: > 10 µM
- drug sensitivity score [8]: 0
- drug sensitivity score [10]: 0
- drug sensitivity score [11]: 0

Structure (SMILES): Cc1cc2c(cc1CC(=O)c1sccc1S(=O)(=O)Nc1onc(C)c1Cl)OCO2 [sitaxentan]
- cell viability ([1]; 1 nM): 114%
- cell viability ([1]; 10 nM): 98%
- cell viability ([1]; 100 nM): 102%
- cell viability ([1]; 1000 nM): 100%
- cell viability ([1]; 10000 nM): 108%
- cell viability ([4]; 1 nM): 99.6%
- cell viability ([4]; 10 nM): 99.6%
- cell viability ([4]; 100 nM): 98.9%
- cell viability ([4]; 1000 nM): 101%
- cell viability ([4]; 10000 nM): 101%
- relative viability EC50 [13]: > 10 µM
- relative viability EC50 [7]: > 10 µM
- drug sensitivity score [8]: 0
- drug sensitivity score [11]: 0

Structure (SMILES): Cc1c(N)nc([C@H](CC(N)=O)NC[C@H](N)C(N)=O)nc1C(=O)N[C@H](C(=O)N[C@H](C)[C@@H](O)[C@H](C)C(=O)N[C@H](C(=O)NCCc1nc(-c2nc(C(=O)NCCC[S+](C)C)cs2)cs1)[C@@H](C)O)[C@@H](OC1OC(CO)C(O)C(O)C1OC1OC(CO)C(O)C(OC(N)=O)C1O)c1cnc[nH]1 (stereo partly drawn) [bleomycin]
- cell viability ([1]; 1 nM): 98.9%
- cell viability ([1]; 10 nM): 93.8%
- cell viability ([1]; 100 nM): 92.3%
- cell viability ([1]; 1000 nM): 89.5%
- cell viability ([1]; 10000 nM): 76.8%
- cell viability ([2]; 1 nM): 102%
- cell viability ([2]; 10 nM): 91.8%
- cell viability ([2]; 100 nM): 94.7%
- cell viability ([2]; 1000 nM): 66.2%
- cell viability ([2]; 10000 nM): 49.8%
- cell viability ([3]; 1 nM): 93.4%
- cell viability ([3]; 10 nM): 93.7%
- cell viability ([3]; 100 nM): 95.8%
- cell viability ([3]; 1000 nM): 66.2%
- cell viability ([3]; 10000 nM): 50.8%
- cell viability ([4]; 1 nM): 97%
- cell viability ([4]; 10 nM): 101%
- cell viability ([4]; 100 nM): 93.5%
- cell viability ([4]; 1000 nM): 88.4%
- cell viability ([4]; 10000 nM): 55.6%
- cell viability ([5]; 1 nM): 97.4%
- cell viability ([5]; 10 nM): 103%
- cell viability ([5]; 100 nM): 97.5%
- cell viability ([5]; 1000 nM): 75.5%
- cell viability ([5]; 10000 nM): 60%
- relative viability EC50 [13]: > 10 µM
- relative viability EC50 [14]: 0.536 µM
- drug sensitivity score [8]: 1.7
- drug sensitivity score [9]: 6.9
- drug sensitivity score [10]: 6.8
- drug sensitivity score [11]: 3.8
- drug sensitivity score [12]: 4.8

Structure (SMILES): COc1ccc(CCc2nc3cc(-c4c(C)noc4C)ccc3n2C[C@H](C)N2CCOCC2)cc1Cl [SGC-CBP30]
- cell viability ([1]; 1 nM): 93.5%
- cell viability ([1]; 10 nM): 97.2%
- cell viability ([1]; 100 nM): 106%
- cell viability ([1]; 1000 nM): 87.9%
- cell viability ([1]; 10000 nM): 76.8%
- cell viability ([2]; 1 nM): 99.4%
- cell viability ([2]; 10 nM): 102%
- cell viability ([2]; 100 nM): 88.3%
- cell viability ([2]; 1000 nM): 90.9%
- cell viability ([2]; 10000 nM): 86.4%
- cell viability ([3]; 1 nM): 90.4%
- cell viability ([3]; 10 nM): 105%
- cell viability ([3]; 100 nM): 93.6%
- cell viability ([3]; 1000 nM): 94.9%
- cell viability ([3]; 10000 nM): 70.4%
- cell viability ([4]; 1 nM): 94.7%
- cell viability ([4]; 10 nM): 95.5%
- cell viability ([4]; 100 nM): 102%
- cell viability ([4]; 1000 nM): 98.7%
- cell viability ([4]; 10000 nM): 79.3%
- cell viability ([5]; 1 nM): 89.8%
- cell viability ([5]; 10 nM): 97.6%
- cell viability ([5]; 100 nM): 89.5%
- cell viability ([5]; 1000 nM): 94.5%
- cell viability ([5]; 10000 nM): 53.9%
- relative viability EC50 [13]: > 10 µM
- relative viability EC50 [14]: > 10 µM
- relative viability EC50 [7]: > 10 µM
- drug sensitivity score [8]: 2.2
- drug sensitivity score [9]: 1.7
- drug sensitivity score [10]: 2.1
- drug sensitivity score [11]: 0.8
- drug sensitivity score [12]: 3.3

Structure (SMILES): CCOP(=S)(OCC)Oc1ccc2c(C)c(Cl)c(=O)oc2c1 [coumophos]
- drug sensitivity score [9]: 0
- drug sensitivity score [10]: 0
- drug sensitivity score [11]: 0
- drug sensitivity score [12]: 0
